“Also recorded” adds a separate entry of the source.
What was measured:
[1] = molecular target: chymotrypsin-like activity of purified 20S proteasome (UniProt Q9P992); type: biochemical
Description: FIG. 8. […] A). […] Initially, 0.5 μg of purified 20S proteasome is incubated with 20 μM of a fluorogenic peptide substrate, Suc-Leu-Leu-Val-Tyr-AMC, for 30 min at 37° C. in 100 μl of assay buffer (20 mM Tris-HCl, pH 8.0) with various concentrations of tannic acid. After incubation, the reaction mixture is diluted to 200 μl with the assay buffer, followed by measurement of the hydrolyzed 7-amido-4-methyl-coumarin (AMC) groups using a fluorometer with an excitation filter of 380 nm and an emission filter of 460 nm. B). […] Tannic acid (0.3 μg/ml) and Glucose (180 μg/ml) are used in the proteasome activity assay as described above. C). […] Purified calpain I (3 μg) protein is incubated with 40 μM of a fluorogenic peptide substrate, Suc-Leu-Tyr-AMC, for 30 min at 37° C. in 100 μl of assay buffer (50 mM Tris-HCl, pH 7.5, containing 50 mM NaCl, 1 mM EDTA, 1 mM EGTA, 5 mM β-Mercaptoethanol, 5 mM CaCl2, and 0.1% CHAPS) in the absence (control) or presence of 5 μg/ml of tannic acid or 0.18 μg/ml of calpeptin (calpain inhibitor).
Inhibition of the proteasome activity in vitro by tea polyphenols—To measure the 20S proteasome chymotrypsin-like activity, 0.5 μg of a purified 20S proteasome (Calbiochem) is incubated with 20 μM of a fluorogenic peptide substrate, Suc-Leu-Leu-Val-Tyr-AMC (Calbiochem), for 30 min at 37° C. in 100 μl of assay buffer (20 mM Tris-HCl, pH 8.0), with or without tea polyphenols (purity >95%; Sigma) or tea extract. After incubation, the reaction mixture is diluted to 200 μl with the assay buffer, followed by measurement of the hydrolyzed 7-amido-4-methyl-coumarin (AMC) groups using a VersaFluor™ Fluorometer with an excitation filter of 380 nm and an emission filter of 460 nm (Bio-Rad).

[2] = tested on: p27, IκB-α, ubiquitinated proteins, Bax in Jurkat T cells; experiment: Western blot of proteasome substrates in Jurkat T cells; type: cell-based, human; details: for levels of p27: intact Jurkat T cells, 1 or 10 μM, 12 h
Description: (§1) FIG. 5. Western blot analysis. A, Jurkat T cells are treated with 1 or 10 μM of EGCG or EGC for 12 h, or B, C, 25 μM of EGCG for various times, followed by Western blot assay using specific antibodies to p27, IκB-α, ubiquitin or actin, as indicated. MWs of IκB-α and actin are 40 and 43 kDa, respectively. The band of 56 kDa, indicated by an arrow in (B), is an ubiquitinated or phosphorylated form of IκB-α. The bands indicated in (C) are ubiquitin-containing proteins. D, LNCaP cells are treated with 1 or 10 μM of EGCG for 12 h. Western bot is performed as described above. E, F, Jurkat T cells are pretreated with 10 μg/ml cycloheximide for 2 hr, followed by co-incubation with 1 or 10 μM of EGCG for 8 or 12 hr as indicated. The p70 is a putative ubiquitinated p27-containing complex (An et al., 1998, Cell Death Differ 5: 1062-75).
FIG. 11. Western blot assay. Western blot assay is performed using specific antibodies to p27^Kip, Bax, poly(ADP-ribose) polymerase (PARP), or actin. Jurkat T cells are treated with 50 μg/ml of tannic acid for 4, 12 or 24 h. Cells are harvested and lysated using the whole lysis buffer (50 mM Tris-HCl, pH 8.0, 5 mM EDTA, 150 mM NaCl, 0.5% NP-40, 0.5 mM PMSF, and 0.5 mM DTT). Cell lysates (70 μg) are separated on a sodium dodecyl sulfate-polyacrylamide gel electrophoresis (SDS-PAGE), followed by Western blot analysis.
(§2) Western blot analysis—Western blot assay is performed as described previously (An et al., (1998) Cell Death Differ 5(12), 1062-75) using specific antibodies to p27^Kip (monoclonal; Pharmingen), IκB-α (polyclonal; Santa Cruz), ubiquitin (polyclonal; Sigma) or actin (polyclonal; Santa Cruz). In brief, Jurkat T or LNCaP cells are treated with EGCG or EGC in dose-response or time-dependent manner. Cells are harvested and lysated using the whole lysis buffer. Cell lysates (70 μg) are separated by a sodium dodecyl sulfate-polyacrylamide gel electrophoresis (SDS-PAGE) and then, electrophoretically transferred to a nitrocellulose membrane. Immunocomplexes are detected using the ECL detection reagents kit (Amersham, Piscataway, N.J.).

Jurkat T cells = experiment: Cell cycle analysis by flow cytometry, Jurkat T cells; type: cell-based, human
Description: (§3) FIG. 6. Cell cycle analysis. Asynchronous Jurkat, LNCaP, WI-38, and VA-13 cells are treated with 10 μM EGCG and harvested at the time points indicated. Cells are prepared and analyzed by flow cytometry as described in the The Materials and Methods section of Example 1. Growth arrest is determined by the increase in the percentage of G1 population.
FIG. 12. […] Jurkat T cells are treated with either 50 μg/ml of tannic acid or buffer (−) for up to 48 h. The harvested cells are fixed, resuspended in 1 ml of PBS containing 50 μg/ml of propidium iodide (PI), 100 U/ml of RNase A, and 1 mg/ml of glucose, and analyzed by flow cytometry. Percentages of cells containing G1 S, G2 and M DNA content are indicated. Percentages of the apoptotic cell population containing sub-G1 DNA content is also indicated. Note: tannic acid treatment results in ˜23% increase in G1 and ˜14% increase in apoptotic cell populations.
(§4) Cell cycle analysis—Cell cycle analysis based on DNA content is performed as follows. Cells are harvested, counted and washed twice with PBS. Cells (5×10^6 ) are then suspended in 0.5 ml PBS, pipetted and fixed in 5 ml of 70% ethanol for at least 2 h at −20° C. Cells are centrifuged, resuspended in 1 ml of propidium iodide staining solution (50 μg propidium iodide, 100 units RNase A and 1 mg glucose per ml PBS) and incubated at room temperature for 30 min. The cells are then analyzed with FACScan (Becton Dickinson Immunocytometry, CA.), ModFit LT and WinMDI V.2.8 cell cycle analysis software (Verity Software, Topsham, Me.). The cell cycle distribution is shown as the percentage of cells containing G1, S, G2, and M DNA judged by propidium iodide staining.

[3] = tested on: p27 and IκB-α in LNCaP cells; experiment: Western blot of proteasome substrates in LNCaP cells; type: cell-based, human; details: 1 or 10 μM, 12 h
Description: as §1
as §2, with “Cell lysates (70 μg) are separated by a sodium dodecyl sulfate-polyacrylamide gel electrophoresis (SDS-PAGE) and then, electrophoretically transferred to a nitrocellulose membrane.” left out

normal human WI-38 cells = experiment: Cell cycle analysis by flow cytometry, WI-38 cells; type: cell-based; details: WI-38, 10 μM
Description: as §3, §4

[4] = Jurkat T cells, 25 μM EGCG, various times
[5] = cycloheximide-pretreated Jurkat T cells, 10 μM
[6] = tannic acid 50 μg/ml, up to 48 h

Chain of chymotrypsin-like activity of purified 20S proteasome (Q9P992 whole entry): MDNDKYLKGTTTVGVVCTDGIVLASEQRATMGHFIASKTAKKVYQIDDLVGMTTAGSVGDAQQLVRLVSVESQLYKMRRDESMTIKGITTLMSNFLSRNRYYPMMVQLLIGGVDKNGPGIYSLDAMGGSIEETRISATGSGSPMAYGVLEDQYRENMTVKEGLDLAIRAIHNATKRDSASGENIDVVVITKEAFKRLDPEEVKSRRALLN

Oc1cc(O)c2c(c1)O[C@H](c1cc(O)c(O)c(O)c1)[C@H](O)C2 [EGC, (−)-epigallocatechin]
fold less potent than EGCG ([1]; ratio of IC50 to EGCG): 14,000 fold
levels of p27 [2]: does not

O=C(O[C@@H]1Cc2c(O)cc(O)cc2O[C@@H]1c1cc(O)c(O)c(O)c1)c1cc(O)c(O)c(O)c1 [EGCG, (−)-epigallocatechin-3-gallate]
increase in G1 population (Jurkat T cells; 10 μM, 24 h): 10%
IC50 ([1]; read-out: IC50 towards the chymotrypsin-like activity of purified 20S proteasome): 86 nM
levels of IκB-α [2, 4]: increases
levels of ubiquitinated proteins [2, 4]: increases
levels of IκB protein [2, 5]: increases
levels of p27 protein [2, 5]: dramatically increased
level of p70 (putative ubiquitinated p27-containing protein) ([2]; cycloheximide-pretreated Jurkat T cells, co-incubation): increase
induction of IκB expression compared with LLnV ([2]; cycloheximide-pretreated Jurkat T cells, same concentration (10 μM)): even greater than that of the proteasome inhibitor LLnV
levels of p27 [2]: greatly increases
p27 and IκB protein expression [3]: accumulated
decrease in G1 population (normal human WI-38 cells; 12 h): 22%
increase in G2/M population (normal human WI-38 cells; 12 h): 6%
increase in S population (normal human WI-38 cells; 12 h): 16%
increase in G1 population (normal human WI-38 cells; 36 h): 22%

O=C(OC[C@H]1O[C@@H](OC(=O)c2cc(O)c(O)c(OC(=O)c3cc(O)c(O)c(O)c3)c2)[C@H](OC(=O)c2cc(O)c(O)c(OC(=O)c3cc(O)c(O)c(O)c3)c2)[C@@H](OC(=O)c2cc(O)c(O)c(OC(=O)c3cc(O)c(O)c(O)c3)c2)[C@@H]1OC(=O)c1cc(O)c(O)c(OC(=O)c2cc(O)c(O)c(O)c2)c1)c1cc(O)c(O)c(OC(=O)c2cc(O)c(O)c(O)c2)c1 [tannic acid]
G1 arrest and apoptosis (in words) (Jurkat T cells; tannic acid): induces G1 arrest and apoptosis
increase in G1 cell population (Jurkat T cells; [6]): ~23%
increase in apoptotic cell population (sub-G1) (Jurkat T cells; [6]): ~14%
inhibition of purified 20S proteasome chymotrypsin-like activity (in words) [1]: concentration-dependent; also recorded: inhibited
inhibition of chymotrypsin-like activity of the proteasome (in words) ([1]; tannic acid 0.3 μg/ml, glucose 180 μg/ml): inhibited
p27Kip and Bax levels ([2]; Jurkat T cells, tannic acid 50 μg/ml, 4, 12 or 24 h): induction
